The values that follow come from patent publication US7977362B2, “Alpha-(N-benzenesulfonamido)cycloalkyl derivatives” (Bristol-Myers Squibb Company, priority 2009, dated 2011).

SMILES strings stand for the structures.

The subject of one test is Aβ formation (γ-secretase) in H4 cells stably transfected to overexpress the HPLAP-APP fusion protein. Nature of the test: In vitro assay based on the inhibition of Aβ formation in cultured cells. It counts as cell-based, human. The note with it: H4 cells overexpressing HPLAP-APP, 18 hrs incubation at 37° C., Aβ in supernatant by time-resolved fluorescence; class symbols. How it is done: Cultured human cell lines, such as HEK293 and H4 cells, which express APP and γ-secretase activity or transfected derivative cell lines that overexpress wild-type APP, mutant APP, or APP fusion proteins will secrete Aβ peptides into the culture media that can be quantified as previously outlined (Dovey, H. et al., J. Neurochem., 76:173-181 (2001)). The incubation of these cultured cells with γ-secretase inhibitors decreases the production of Aβ peptides. For instance, H4 cells stably transfected to overexpress the HPLAP-APP fusion protein described above were grown as above, detached, and adjusted to 2×10^5 cells/ml. 100 μl of the resulting suspension was then added to each well of a 96-well plate. After 4 hrs, the media was removed and replaced with 100 μl serum-free media containing various dilutions of the test compound. Plates were then incubated for 18 hrs at 37° C. and a 100 μl aliquot of the tissue culture supernatant was removed for determination of Aβ levels using time-resolved fluorescence of the homogenous sample as outlined above. Alternately, the other methods described above for Aβ determination could be used. The extent of Aβ inhibition was used to calculate the IC50 value for the test compound.
In the table, an inhibitory concentration (IC50) of less than or equal to 50 nM is represented by +++; between 50 nM and 500 nM by ++; between 500 nM and 5000 nM by +.
Turning to `O=S(=O)(c1ccc(Cl)cc1)N(Cc1ccc(-c2ncco2)c(F)c1F)[C@@H]1CCCC[C@H]1CO` [Compound 16, 4-Chloro-N-(2,3-difluoro-4-(oxazol-2-yl)benzyl)-N-((1R,2R)-2-(hydroxymethyl)cyclohexyl)benzenesulfonamide], the IC50 (usually the concentration at which inhibition is half-maximal) was at most 50 nM.
Same read-out and setting: with `O=S(=O)(c1ccc(Cl)cc1)N(Cc1ccc(-c2ncon2)cc1)[C@@H]1CCCC[C@H]1CO` [Compound 17, N-(4-(1,2,4-Oxadiazol-3-yl)benzyl)-4-chloro-N-((1R,2R)-2-(hydroxymethyl)cyclohexyl)benzenesulfonamide] the figure was at most 50 nM; with `O=S(=O)(c1ccc(Cl)cc1)N(Cc1ccc(-c2ncon2)cc1)[C@@H]1CCCC[C@H]1CO` (single isomer, unassigned) [Compound 7, N-(4-(1,2,4-oxadiazol-3-yl)benzyl)-4-chloro-N-(trans-2-(hydroxymethyl)cyclohexyl)benzenesulfonamide], at most 50 nM.

Still in this test, the particulars now being: H4 cells overexpressing HPLAP-APP, 18 hrs incubation at 37° C., Aβ in supernatant by time-resolved fluorescence; numeric values.
As for `O=S(=O)(c1ccc(Cl)cc1)N(Cc1cc(F)c(-c2ncon2)cc1F)[C@@H]1CCCC[C@H]1CO` (relative stereo) [Compound 11, 4-Chloro-N-(2,5-difluoro-4-(1,2,4-oxadiazol-3-yl)benzyl)-N-(trans-2-(hydroxymethyl)cyclohexyl)benzenesulfonamide], the concentration for half-maximal inhibition (IC50) stood at 0.32 nM.
Still for that read-out and setting: with `O=S(=O)(c1ccc(Cl)cc1)N(Cc1cc(F)c(-c2ncon2)cc1F)[C@@H]1CCCC[C@H]1CO` [Compound 21, 4-Chloro-N-(2,5-difluoro-4-(1,2,4-oxadiazol-3-yl)benzyl)-N-((1R,2R)-2-(hydroxymethyl)cyclohexyl)benzenesulfonamide] the figure was 0.15 nM.

Staying with this test, now noted: Homo sapiens, 18 h, H4 cells overexpressing HPLAP-APP, 18 hrs incubation at 37° C., Aβ in supernatant by time-resolved fluorescence; class symbols.
In the case of `O=S(=O)(c1ccc(Cl)cc1)N(Cc1ccc(-c2ncon2)cc1)C1(CO)CCCCC1` [Compound 37, N-(4-(1,2,4-Oxadiazol-3-yl)benzyl)-4-chloro-N-(1-(hydroxymethyl)cyclohexyl)benzenesulfonamide], the IC50 lay in the range of 500 to 5000 nM.
`O=S(=O)(c1ccc(Cl)cc1)N(Cc1ccc(-c2ncon2)cc1)[C@@H]1CCCCC[C@@H]1CO` (relative stereo) [Compound 32, N-(4-(1,2,4-Oxadiazol-3-yl)benzyl)-4-chloro-N-(cis-2-(hydroxymethyl)cycloheptyl)benzenesulfonamide] showed a 50% inhibitory concentration (IC50) of at most 50 nM.
Same read-out and setting: with `O=S(=O)(N[C@@H]1CCCC[C@H]1CO)c1ccc(Cl)cc1` (single isomer, unassigned) [Compound 15] the figure was 500 to 5000 nM.
Same read-out and setting: with `CC(O)[C@@H]1CCCC[C@H]1N(Cc1ccc(-c2ncco2)cc1F)S(=O)(=O)c1ccc(Cl)cc1` (single isomer, unassigned) [Compound 25] the figure was at most 50 nM; with `O=S(=O)(c1ccc(Cl)cc1)N(Cc1ccc(-c2ncon2)cc1)[C@@H]1CCCC[C@H]1CO` (relative stereo) [Compound 5, N-(4-(1,2,4-Oxadiazol-3-yl)benzyl)-4-chloro-N-(trans-2-(hydroxymethyl)cyclohexyl)benzenesulfonamide], at most 50 nM.
Turning to `O=S(=O)(c1ccc(Cl)cc1)N(Cc1ccc(-c2ncon2)cc1F)[C@@H]1CCCC[C@H]1CO` (relative stereo) [Compound 8, 4-Chloro-N-(2-fluoro-4-(1,2,4-oxadiazol-3-yl)benzyl)-N-(trans-2-(hydroxymethyl)cyclohexyl)benzenesulfonamide], the IC50 was at most 50 nM.
In the case of `O=S(=O)(c1ccc(Cl)cc1)N(Cc1ccc(-c2ncon2)cc1)[C@@H]1CCCC[C@H]1CO` (single isomer, unassigned) [Compound 6, N-(4-(1,2,4-oxadiazol-3-yl)benzyl)-4-chloro-N-(trans-2-(hydroxymethyl)cyclohexyl)benzenesulfonamide], the IC50 is at most 50 nM.
The molecule `O=S(=O)(c1ccc(Cl)cc1)N(Cc1ccc(-c2ncon2)cc1)[C@@H]1CCC[C@@H]1CO` (relative stereo) [Compound 4, N-(4-(1,2,4-Oxadiazol-3-yl)benzyl)-4-chloro-N-(cis-2-(hydroxymethyl)cyclopentyl)benzenesulfonamide] showed a half-inhibitory concentration (IC50) of 50 to 500 nM.
Molecule `O=S(=O)(N[C@H]1CCCC[C@@H]1CO)c1ccc(Cl)cc1` (single isomer, unassigned) [Compound 14] registered a half-inhibitory concentration (IC50) of 500 to 5000 nM.
For the molecule `CC(C)(O)[C@@H]1CCCC[C@H]1N(Cc1ccc(-c2ncco2)cc1F)S(=O)(=O)c1ccc(Cl)cc1` [Compound 23, 4-Chloro-N-(2-fluoro-4-(oxazol-2-yl)benzyl)-N-((1R,2R)-2-(2-hydroxypropan-2-yl)cyclohexyl)benzenesulfonamide], the IC50 lay in the range of 500 to 5000 nM.
For the molecule `O=S(=O)(c1ccc(Cl)cc1)N(Cc1ccc(-c2ncco2)cc1)C1CC2CCC1C2O` (centres unmarked) [Compound 34, N-(4-(Oxazol-2-yl)benzyl)-N-(7-hydroxybicyclo[2.2.1]heptan-2-yl)-4-chlorobenzenesulfonamide], the IC50 is 500 to 5000 nM.
The same measure, in the same setting: with `O=S(=O)(c1ccc(Cl)cc1)N(Cc1ccc(-c2ncco2)cc1)[C@@H]1CCCC[C@H]1CO` [Compound 18, 4-Chloro-N-((1R,2R)-2-(hydroxymethyl)cyclohexyl)-N-(4-(oxazol-2-yl)benzyl)benzenesulfonamide] the figure was at most 50 nM; with `N#Cc1cc(F)c(CN([C@@H]2CCCC[C@H]2CO)S(=O)(=O)c2ccc(Cl)cc2)cc1F` (relative stereo) [Compound 10, 4-Chloro-N-(4-cyano-2,5-difluorobenzyl)-N-(trans-2-(hydroxymethyl)cyclohexyl)benzenesulfonamide], at most 50 nM.
Molecule `O=S(=O)(c1ccc(Cl)cc1)N(Cc1ccc(-c2ncon2)cc1)[C@@H]1CCC[C@H]1CO` (relative stereo) [Compound 2, N-(4-(1,2,4-Oxadiazol-3-yl)benzyl)-4-chloro-N-(trans-2-(hydroxymethyl)cyclopentyl)benzenesulfonamide] returned an IC50 of 50 to 500 nM.
Take `O=S(=O)(c1ccc(Cl)cc1)N(Cc1ccc(-c2ncco2)cc1)[C@@H]1CCCCC[C@@H]1CO` (relative stereo) [Compound 31, 4-Chloro-N-(cis-2-(hydroxymethyl)cycloheptyl)-N-(4-(oxazol-2-yl)benzyl)benzenesulfonamide]: the half-maximal inhibitory concentration (IC50) was in the range of 50 to 500 nM.
For `O=S(=O)(c1ccc(Cl)cc1)N(Cc1ccc(-c2ncon2)cc1)[C@@H]1CCCCC[C@H]1CO` (relative stereo) [Compound 29, N-(4-(1,2,4-Oxadiazol-3-yl)benzyl)-4-chloro-N-(trans-2-(hydroxymethyl)cycloheptyl)benzenesulfonamide], the half-inhibitory concentration (IC50) was at most 50 nM.
Same read-out and setting: with `O=S(=O)(c1ccc(Cl)cc1)N(Cc1ccc(-c2ncco2)c(F)c1F)[C@@H]1CCCC[C@H]1CO` (relative stereo) [Compound 9, 4-Chloro-N-(2,3-difluoro-4-(oxazol-2-yl)benzyl)-N-(trans-2-(hydroxymethyl)cyclohexyl)benzenesulfonamide] the figure was at most 50 nM; with `O=S(=O)(c1ccc(Cl)cc1)N(Cc1ccc(Br)cc1)C1CC2CCC1C2O` (centres unmarked) [Compound 33, N-(4-Bromobenzyl)-N-(7-hydroxybicyclo[2.2.1]heptan-2-yl)-4-chlorobenzenesulfonamide], 500 to 5000 nM; with `O=S(=O)(c1ccc(Cl)s1)N(Cc1ccc(-c2ncco2)c(F)c1F)[C@@H]1CCCC[C@H]1CO` (relative stereo) [Compound 13, 5-Chloro-N-(2,3-difluoro-4-(oxazol-2-yl)benzyl)-N-(trans-2-(hydroxymethyl)cyclohexyl)thiophene-2-sulfonamide], at most 50 nM.
`N#Cc1ccc(CN([C@@H]2CCCCC[C@H]2CO)S(=O)(=O)c2ccc(Cl)cc2)cc1` (relative stereo) [Compound 28, 4-Chloro-N-(4-cyanobenzyl)-N-(trans-2-(hydroxymethyl)cycloheptyl)benzenesulfonamide]: the IC50 is at most 50 nM.
On to `O=S(=O)(c1ccc(Cl)cc1)N(Cc1cc(F)c(-c2ncco2)cc1F)[C@@H]1CCCC[C@H]1CO` [Compound 20, 4-Chloro-N-(2,5-difluoro-4-(oxazol-2-yl)benzyl)-N-((1R,2R)-2-(hydroxymethyl)cyclohexyl)benzenesulfonamide], for which the IC50 was at most 50 nM.
`O=S(=O)(c1ccc(Cl)cc1)N(Cc1ccc(-c2ncco2)cc1)[C@@H]1CCCCC[C@H]1CO` (relative stereo) [Compound 30, 4-Chloro-N-(trans-2-(hydroxymethyl)cycloheptyl)-N-(4-(oxazol-2-yl)benzyl)benzenesulfonamide]: the IC50 is at most 50 nM.

The test is the same for the next values; noted with them: Homo sapiens, 18 h, H4 cells overexpressing HPLAP-APP, 18 hrs incubation at 37° C., Aβ in supernatant by time-resolved fluorescence; numeric values.
The molecule `CC(O)[C@@H]1CCCC[C@H]1N(Cc1ccc(-c2ncco2)cc1F)S(=O)(=O)c1ccc(Cl)cc1` (single isomer, unassigned) [Compound 24] gave an IC50 of 2300 nM.
Consider `O=S(=O)(c1ccc(Cl)cc1)N(Cc1ccc(-c2ncco2)cc1)[C@@H]1CCC[C@@H]1CO` (relative stereo) [Compound 3, 4-Chloro-N-(cis-2-(hydroxymethyl)cyclopentyl)-N-(4-(oxazol-2-yl)benzyl)benzenesulfonamide], for which half-maximal inhibition (IC50) was put at 223 nM.
